Reference: paper PMC5434028, “Structure-based prediction and identification of 4-epimerization activity of phosphate sugars in class II aldolases” (Scientific Reports, 2017)

Molecular target: T1, RhaD (L-rhamnulose-1-phosphate aldolase) (Escherichia coli, UniProt P32169)
T1 sequence (P32169 1-274): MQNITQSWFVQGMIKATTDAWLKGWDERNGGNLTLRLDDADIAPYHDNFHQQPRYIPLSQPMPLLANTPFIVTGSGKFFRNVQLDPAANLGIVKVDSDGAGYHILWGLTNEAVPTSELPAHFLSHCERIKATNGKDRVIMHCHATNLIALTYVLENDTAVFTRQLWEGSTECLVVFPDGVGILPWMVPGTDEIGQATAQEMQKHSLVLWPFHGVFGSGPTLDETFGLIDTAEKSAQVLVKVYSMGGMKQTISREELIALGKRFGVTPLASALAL
Experiment: aldol condensation, dephosphorylation, Bio-LC of sorbose and psicose
Format: biochemical
Details: 50 mM Tris-HCl pH 7.0, 50 °C

`O=C[C@H](O)CO` [GA] was tested, and the “aldol condensation, dephosphorylation, Bio-LC of sorbose and psicose” value (co-substrate DHAP) was “S1P and P1P were condensed from DHAP and GA using RhaD”.
`O=C(CO)COP(=O)(O)O` [dihydroxyacetone phosphate] was tested, and the “aldol condensation, dephosphorylation, Bio-LC of sorbose and psicose” value (co-substrate GA) was “S1P and P1P were condensed from DHAP and GA using RhaD”.
